Reference: publication PMC10913484, “Hydroxyhexylitaconic acids as potent IMP-type metallo-β-lactamase inhibitors for controlling carbapenem resistance in Enterobacterales” (Microbiology Spectrum, 2024)

Assays:
[1] = tested on: IMP-1-producing E. coli NUBL-24; assay: Time-killing assay; assay type: cell-based; conditions: 12-h incubation; for Time-kill: effect on growth, HHIA alone: 50 µg/mL alone; for Time-kill: MPM-HHIA combination: MPM 1 µg/mL + HHIA 50 µg/mL
Method: The initial density of IMP-1-producing E. coli NUBL-24 (MPM MIC, 8 µg/mL) was adjusted to approximately 5 × 10^6 colony-forming units (cfu)/mL. Either MPM (1 µg/mL) or 9-HHIA/10-HHIA (50 µg/mL) alone or a combination of the two was added to the bacterial solution, and then incubation was performed at 37°C. LB broth containing bacteria alone was used as a control. At 0, 2, 4, 8, and 12 h after adding the agents, an aliquot of the bacterial culture was removed, diluted, and spotted on LB agar plates to count the viable bacterial cells. The detection limit was set at 333 cfu/mL.

IMP-1 [2] = molecular target: T1, IMP-1 (Serratia marcescens, UniProt P52699); assay type: biochemical; conditions: IMP-1 with agent (5 mM stock), dialysis
T1 construct: made in house
Method: A total of 5 µL of IMP-1 (100 µM) and 2 µL of EDTA (5 mM) or HHIA (5 mM) were mixed in 100 µL of 20 mM HEPES buffer (pH 7.5) pretreated with Chelex 100 resin (Bio-Rad) and incubated on ice for 30 min. The samples were dialyzed against ultrapure water at 4°C for 6 h using Slide-A-Lyzer Dialysis Cassettes (cutoff, 3.5 K) (Thermo Fisher Scientific) and treated with proteinase K (FUJIFILM Wako Pure Chemical Corporation) at 37°C for 1 h. The zinc concentration in the samples was determined using a Zinc Assay Kit (MG Metallogenics).

IMP-6 = molecular target: T2, IMP-6 (Serratia marcescens, UniProt P52699, S214G); assay: In vitro inhibition assay (IPM hydrolysis); assay type: biochemical
T2 construct: made in house
Method: (§1) MBLs were incubated with HHIAs in 20 mM HEPES buffer (pH 7.5) containing 200 mM NaCl and 50 µg/mL BSA at 30°C for 5 min. IPM was added at a concentration of 100 µM, and the rate of IPM hydrolysis was monitored at 297 nm. The initial velocity (v0) rates were plotted against HHIA’s logarithmic concentrations, and the data were fitted to a four-parameter variable slope to obtain the half-maximal inhibitor concentration (IC50) values using GraphPad Prism 9 software (GraphPad Software). The inhibition constant (Ki) was determined as follows: v0 was measured after varying the concentrations of IPM and HHIAs, and inverse v0 (1/v0) was plotted against the inverse IPM concentration [1/(IPM)]. Lineweaver–Burk plots were created to obtain Ki values under the competitive inhibition model using the SigmaPlot 14 suite (Hulinks).

NDM-1 = molecular target: T3, NDM-1 (Klebsiella pneumoniae, UniProt C7C422); assay: In vitro inhibition assay (IPM hydrolysis); assay type: biochemical; conditions: even at high doses (100 µM)
T3 construct: made in house
Method: as §1

SMB-1 = assay: In vitro inhibition assay (IPM hydrolysis); assay type: biochemical; conditions: even at high doses (100 µM)
Method: as §1

VIM-2 = molecular target: T4, VIM-2 (Escherichia coli, UniProt Q5U7L7); assay: In vitro inhibition assay (IPM hydrolysis); assay type: biochemical
T4 construct: made in house
Method: as §1

IMP-1 [3] = molecular target: T1, IMP-1; assay: In vitro inhibition assay (IPM hydrolysis); assay type: biochemical; conditions: for Inhibition mode for IMP-1: Lineweaver–Burk plots
Method: as §1

T1 sequence (P52699 19-246, looked up, species assumed): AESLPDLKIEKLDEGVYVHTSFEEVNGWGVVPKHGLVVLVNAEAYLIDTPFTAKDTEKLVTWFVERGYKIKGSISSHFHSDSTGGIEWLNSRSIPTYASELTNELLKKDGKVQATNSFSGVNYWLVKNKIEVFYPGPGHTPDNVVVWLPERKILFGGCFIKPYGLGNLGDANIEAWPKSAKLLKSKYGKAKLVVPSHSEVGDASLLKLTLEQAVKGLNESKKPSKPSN
T3 sequence (C7C422 29-270 limits assumed): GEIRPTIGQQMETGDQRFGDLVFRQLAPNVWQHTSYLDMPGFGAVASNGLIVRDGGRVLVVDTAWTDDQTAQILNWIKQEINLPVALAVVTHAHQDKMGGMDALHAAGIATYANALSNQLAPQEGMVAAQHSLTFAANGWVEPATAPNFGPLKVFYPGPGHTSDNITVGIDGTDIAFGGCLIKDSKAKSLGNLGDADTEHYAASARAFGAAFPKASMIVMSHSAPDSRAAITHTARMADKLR
T2 sequence (P52699 19-246 S214G): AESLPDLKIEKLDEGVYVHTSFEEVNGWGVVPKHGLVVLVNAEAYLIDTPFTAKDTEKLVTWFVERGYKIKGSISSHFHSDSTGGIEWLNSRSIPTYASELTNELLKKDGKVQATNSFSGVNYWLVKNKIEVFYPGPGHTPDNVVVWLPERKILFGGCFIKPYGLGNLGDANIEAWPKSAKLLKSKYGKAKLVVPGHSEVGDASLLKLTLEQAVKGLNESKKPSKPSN

Row | Structure (SMILES) | Time-kill: effect on growth, HHIA alone [1] | Time-kill: MPM-HHIA combination [1] | Zinc ions in IMP-1 after treatment (IMP-1 [2]) | Ki (IMP-6) | Inhibition of hydrolyzing activity of NDM-1 (NDM-1) | Inhibition of hydrolyzing activity of SMB-1 (SMB-1) | Inhibitory activity against VIM-2 (VIM-2) | IC50 (IMP-1 [3]) | Ki (IMP-1 [3]) | Inhibition mode for IMP-1 (IMP-1 [3])
1 | C=C(C(=O)O)C(CCCCC(C)O)C(=O)O (centres unmarked) [9-HHIA, 9-hydroxyhexylitaconic acid] | did not affect the growth | did not permit the re-growth | did not cause a significant loss of zinc ions | 27.8 µM | did not inhibit | did not inhibit | moderate | 50.5 µM | 11.1 µM | competitive inhibitors
2 | C=C(C(=O)O)C(CCCCCCO)C(=O)O (centres unmarked) [10-HHIA, 10-hydroxyhexylitaconic acid] | did not affect the growth | did not permit the re-growth | did not cause a significant loss of zinc ions | 21 µM | did not inhibit | did not inhibit | moderate | 31.6 µM | 5 µM | competitive inhibitors
